This note sets out measurements from PubChem BioAssay (NCI).

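Tested at 5 concentrations; 48 h exposure; 96-well plates; endpoints linearly interpolated, else capped at highest concentration. Abbreviation: GI50, concentration required for 50% inhibition of growth. TGI: concentration producing complete growth inhibition.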 Bounds are passed on as bounds.

Among the test systems are NCI-H460 lung; SNB-19 CNS; UACC-62 melanoma; LOX IMVI melanoma; M14 melanoma; HOP-92 NSCLC; SF-539 CNS; MOLT-4 leukemia; ACHN renal; T-47D breast.
Common to all, as to test: growth of human tumour cells (NCI), 48 h

As for `CC[C@H](C)C(=O)O[C@H]1C[C@H](O)C=C2C=C[C@H](C)[C@H](CC[C@@H](O)C[C@@H](O)CC(=O)O)[C@H]21`, the GI50 in the experiment with NCI-H460 lung was > 100 µM; in the experiment on SNB-19 CNS, > 100 µM; in the experiment on UACC-62 melanoma, > 100 µM; with LOX IMVI melanoma, > 100 µM; in the experiment with M14 melanoma it was > 100 µM; with HOP-92 NSCLC it was 23 µM. The GI50 with SF-539 CNS, with MOLT-4 leukemia, in the experiment with ACHN renal and in the experiment with T-47D breast was > 100 µM each time. Moreover, the TGI in the experiment on NCI-H460 lung, in the experiment on SNB-19 CNS, in the experiment with UACC-62 melanoma, with LOX IMVI melanoma, in the experiment with M14 melanoma and with HOP-92 NSCLC was > 100 µM in each case. The TGI in the experiment on SF-539 CNS, in the experiment on MOLT-4 leukemia, with ACHN renal and in the experiment with T-47D breast was > 100 µM each time.

Take `C=CC1=C(C)C2=NC1=CC1=NC(=C(CC)/C1=C\O)C=C1N=C3C(=C1C)C(=O)[C@H](C(=O)OC)C3=C1NC(=C2)[C@@H](C)[C@@H]1CCC(=O)O`: the TGI with NCI-H460 lung, with SNB-19 CNS, in the experiment with UACC-62 melanoma, in the experiment on LOX IMVI melanoma, in the experiment with M14 melanoma and with HOP-92 NSCLC was > 100 µM in each case. Moreover, the TGI with SF-539 CNS, in the experiment with MOLT-4 leukemia, in the experiment on ACHN renal and in the experiment with T-47D breast was > 100 µM throughout.

For the compound `N#CC1C=Cc2c(ccc3ccccc23)N1C(=O)c1ccccc1` (centres undefined), the GI50 was 0.191 µM in the experiment with NCI-H460 lung; 0.524 µM in the experiment on SNB-19 CNS; 0.243 µM in the experiment on UACC-62 melanoma; 0.319 µM with LOX IMVI melanoma; 0.209 µM with M14 melanoma; 3.1 µM with HOP-92 NSCLC. The GI50 was 0.238 µM with SF-539 CNS, 0.421 µM with MOLT-4 leukemia, 0.352 µM with ACHN renal and 0.103 µM with T-47D breast. Moreover, the TGI in the experiment with NCI-H460 lung was 7.56 µM; with SNB-19 CNS it was > 100 µM; with UACC-62 melanoma it was > 100 µM; in the experiment with LOX IMVI melanoma it was > 100 µM; with M14 melanoma, > 100 µM; in the experiment with HOP-92 NSCLC, > 100 µM. The TGI in the experiment on MOLT-4 leukemia, in the experiment on ACHN renal and in the experiment on T-47D breast was > 100 µM in each case.

For `O=C(O)C(Oc1nc(=S)[nH]c(=S)[nH]1)(c1ccc(Cl)cc1)c1ccc(Cl)cc1`, the TGI with NCI-H460 lung, in the experiment with SNB-19 CNS, with UACC-62 melanoma, in the experiment with LOX IMVI melanoma, in the experiment with M14 melanoma and in the experiment with HOP-92 NSCLC was > 100 µM in each case. Moreover, the TGI in the experiment on SF-539 CNS, with MOLT-4 leukemia, in the experiment on ACHN renal and in the experiment with T-47D breast was > 100 µM each time.

Regarding `O=C(c1ccccc1)c1c(C(F)(F)F)n([O-])c2ccc(C(F)(F)F)cc2[n+]1=O`, the GI50 is 0.232 µM in the experiment with NCI-H460 lung; 0.83 µM with SNB-19 CNS; 0.665 µM with UACC-62 melanoma; 0.0513 µM with LOX IMVI melanoma; 0.619 µM in the experiment on M14 melanoma; 0.16 µM with HOP-92 NSCLC. The GI50 in the experiment with SF-539 CNS is 0.315 µM; with MOLT-4 leukemia it was 0.0902 µM; with ACHN renal, 0.102 µM; in the experiment with T-47D breast it was 0.372 µM. Moreover, the TGI with NCI-H460 lung was found to be 0.587 µM; in the experiment with SNB-19 CNS it was 2.1 µM; in the experiment with UACC-62 melanoma, 1.86 µM; with LOX IMVI melanoma, 0.0954 µM; in the experiment with M14 melanoma, 1.47 µM; in the experiment with HOP-92 NSCLC, 0.318 µM. The TGI in the experiment with SF-539 CNS came to 0.745 µM; in the experiment on MOLT-4 leukemia it was 0.313 µM; in the experiment with ACHN renal it was 0.26 µM; in the experiment with T-47D breast, 1.08 µM.

Regarding `C[C@@H]1COCCN1c1cc(C2(O)C[C@H]3CC[C@@H](C2)O3)c2cnn(-c3ccn[nH]3)c2n1` (some centres undefined), the GI50 in the experiment with NCI-H460 lung was 0.0334 µM; in the experiment on SNB-19 CNS it was 0.166 µM; with UACC-62 melanoma, 0.05 µM; with LOX IMVI melanoma, 0.0246 µM; in the experiment with M14 melanoma it was 0.0383 µM; with HOP-92 NSCLC, 0.114 µM. Further, the GI50 was 0.023 µM with SF-539 CNS, 0.0437 µM with MOLT-4 leukemia, 0.0316 µM with ACHN renal and 0.122 µM in the experiment with T-47D breast. Moreover, the TGI in the experiment with NCI-H460 lung was determined as 1.43 µM; in the experiment with SNB-19 CNS, 1.74 µM; with UACC-62 melanoma, 0.384 µM; with LOX IMVI melanoma it was 0.145 µM; in the experiment on M14 melanoma, 0.785 µM; in the experiment with HOP-92 NSCLC, 0.879 µM. Also, the TGI is 0.0946 µM with SF-539 CNS, > 67.3 µM in the experiment with MOLT-4 leukemia, 0.353 µM with ACHN renal and 0.734 µM with T-47D breast.

Take `C[C@@H](Nc1nc(Nc2ccc(F)c(Cl)c2)nc2ccccc12)C1CC1`: the GI50 with NCI-H460 lung was 3.12 µM; with SNB-19 CNS, 4.44 µM; in the experiment on UACC-62 melanoma it was 2.68 µM; with LOX IMVI melanoma, 1.68 µM; in the experiment on M14 melanoma, 1.87 µM; in the experiment on HOP-92 NSCLC, 1.6 µM. The GI50 with SF-539 CNS is 3.16 µM; in the experiment with MOLT-4 leukemia, 1.73 µM; in the experiment with ACHN renal it was 4.11 µM; in the experiment on T-47D breast it was 2.7 µM. For the same compound, the TGI in the experiment with NCI-H460 lung came out at 19.3 µM; in the experiment with SNB-19 CNS, 22.1 µM; in the experiment with UACC-62 melanoma it was 14.3 µM; in the experiment on LOX IMVI melanoma, 3.25 µM; in the experiment on M14 melanoma, 4.12 µM; with HOP-92 NSCLC, 5.79 µM. Besides, the TGI with SF-539 CNS stood at 12.4 µM; with MOLT-4 leukemia it was 5.38 µM; with ACHN renal it was 17.3 µM; in the experiment on T-47D breast it was 14 µM.

Turning to `CC(=O)c1cc(O)c2ccccc2c1O`, the GI50 with NCI-H460 lung was 27 µM; with SNB-19 CNS it was 46 µM; in the experiment on UACC-62 melanoma it was 16.2 µM; in the experiment with LOX IMVI melanoma it was 14.8 µM; in the experiment with M14 melanoma it was 19.7 µM; with HOP-92 NSCLC it was 16.6 µM. Further, the GI50 was 22.5 µM in the experiment on SF-539 CNS, 33.6 µM in the experiment with MOLT-4 leukemia, 16.9 µM in the experiment with ACHN renal and 17.4 µM with T-47D breast. Further, the TGI in the experiment on NCI-H460 lung was 76.8 µM; in the experiment on SNB-19 CNS it was > 100 µM; in the experiment on UACC-62 melanoma it was 32.7 µM; in the experiment with LOX IMVI melanoma, 39.3 µM; in the experiment with M14 melanoma, 36.7 µM; in the experiment with HOP-92 NSCLC, 31 µM. Moreover, the TGI amounted to 40.6 µM in the experiment with SF-539 CNS, 99.4 µM in the experiment with MOLT-4 leukemia, 32.5 µM in the experiment with ACHN renal and 41.4 µM in the experiment with T-47D breast.
